The experiment addresses human TrkA receptor (Homo sapiens (Human), UniProt P04629). Nature of the experiment: TrkA functional activity, DiscoverX PathHunter assay. Format: cell-based. The settings on record: U2OS cells expressing human TrkA-PK, Shc1-EA and p75NTR; compound 1 h, then NGF at ~80% of maximal response for 3 h; luminescence.

The structures appear in SMILES notation.

We go through 30 compounds from patent US9862707B2, “TrkA kinase inhibitors, compositions and methods thereof” (Merck Sharp & Dohme Corp., priority 2014, dated 2018).

Sequence of human TrkA receptor (P04629 33-796): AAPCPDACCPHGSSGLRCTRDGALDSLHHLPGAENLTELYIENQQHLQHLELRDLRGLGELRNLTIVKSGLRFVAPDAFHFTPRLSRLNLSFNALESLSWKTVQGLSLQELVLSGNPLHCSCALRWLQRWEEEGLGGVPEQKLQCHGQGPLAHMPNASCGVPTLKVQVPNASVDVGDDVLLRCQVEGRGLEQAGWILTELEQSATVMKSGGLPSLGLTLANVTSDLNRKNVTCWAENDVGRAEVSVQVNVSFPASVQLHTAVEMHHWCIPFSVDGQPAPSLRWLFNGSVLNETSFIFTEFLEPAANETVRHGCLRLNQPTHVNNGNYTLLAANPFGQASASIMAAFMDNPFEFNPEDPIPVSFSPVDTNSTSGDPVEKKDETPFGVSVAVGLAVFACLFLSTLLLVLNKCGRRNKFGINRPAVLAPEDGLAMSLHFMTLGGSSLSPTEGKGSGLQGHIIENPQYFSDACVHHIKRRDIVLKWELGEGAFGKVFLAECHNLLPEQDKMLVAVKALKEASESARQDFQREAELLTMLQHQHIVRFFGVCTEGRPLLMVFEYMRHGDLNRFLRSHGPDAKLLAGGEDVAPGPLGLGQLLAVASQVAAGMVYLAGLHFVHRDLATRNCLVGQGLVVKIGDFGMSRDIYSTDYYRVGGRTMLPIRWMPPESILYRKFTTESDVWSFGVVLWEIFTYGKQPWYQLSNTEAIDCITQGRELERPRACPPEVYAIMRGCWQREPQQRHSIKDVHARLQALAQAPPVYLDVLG
Protocol: TrkA functional activity was measured using a DiscoverX PathHunter assay. In this assay, U2OS cells express the human TrkA receptor as a fusion with the weakly complementing fragment of B-galactosidase, which DiscoverX calls “Prolink (PK)”; additionally, Shc1 is fused with a larger fragment, which is called “Enzyme Acceptor (EA)”. Activation of the TrkA receptor, upon NGF addition, results in the kinase domain being phosphorylated, resulting in subsequent recruitment of Shc1-EA protein. That recruitment results in an active B-galactosidase enzyme that is detected by addition of a chemiluminescent substrate. The human p75^NTR protein was also expressed as a co-receptor for NGF.
All reagents were purchased from DiscoverX, except for the receptor agonists (NGF, BDNF, NT3) which were purchased from Peprotech. Cells were expanded and frozen into cryovials, and stored in the vapor phase of liquid nitrogen, and thawed immediately before use. Thawed cells were added to a 384-well plate at 7500 cells/well, and allowed to incubate overnight. Compound at various concentrations was added the following morning and allowed to incubate on cells for 1 h. Then, NGF was added at a concentration sufficient to elicit ˜80% of a maximal response and allowed to incubate for 3 h at ambient temperature. DiscoverX PathHunter detection reagent was then added and the plate was further incubated for 1 h in the dark. The plate was then read via luminescence on the Perkin Elmer Envision.

Consider `Cn1ccc(-c2cc(C(=O)Nc3c4ncc(C(C)(C)O)cc4nn3-c3ccccc3)ccc2C(F)(F)F)n1` [Compound 48, N-[6-(1-hydroxy-1-methylethyl)-2-phenyl-2H-pyrazolo[4,3-b]pyridin-3-yl]-3-(1-methyl-1H-pyrazol-3-yl)-4-(trifluoromethyl)benzamide], for which half-maximal inhibition (IC50) required 5.2 nM.
In the case of `O=C(Nc1c2cc(C3(O)CC3)ccc2nn1-c1ccccc1)c1cc(-c2ncccn2)c(C(F)(F)F)cc1F` [Compound 50, 2-Fluoro-N-(5-(1-hydroxycyclopropyl)-2-phenyl-2H-indazol-3-yl)-5-(pyrimidin-2-yl)-4-(trifluoromethyl)benzamide], the IC50 stood at 1.6 nM.
To `Cn1ccc(-c2cc(C(=O)Nc3c4cc(C5(O)CC5)ccc4nn3-c3ccccc3)ccc2C(F)(F)F)n1` [Compound 51, N-[5-(1-hydroxycyclopropyl)-2-phenyl-2H-indazol-3-yl]-3-(1-methyl-1H-pyrazol-3-yl)-4-(trifluoromethyl)benzamide] belongs 6.4 nM; to `O=C(Nc1c2ccc(CCO)cc2nn1-c1ccccc1)c1cc(-c2ncccn2)c(C(F)(F)F)cc1F` [Compound 60, 2-Fluoro-N-(6-(2-hydroxyethyl)-2-phenyl-2H-indazol-3-yl)-5-(pyrimidin-2-yl)-4-(trifluoromethyl)benzamide], 2.2 nM.
Turning to `O=C(Nc1c2cc(CCO)ccc2nn1-c1ccccc1)c1cc(-c2ncccn2)c(C(F)(F)F)cc1F` [Compound 61, 2-fluoro-N-[5-(2-hydroxyethyl)-2-phenyl-2H-indazol-3-yl]-5-pyrimidin-2-yl-4-(trifluoromethyl)benzamide], the IC50 amounted to 3.1 nM.
Take `NCc1cnc2c(NC(=O)c3cc(-c4ncccn4)c(C(F)(F)F)cc3F)n(-c3ccccc3)nc2c1` [Compound 66, N-(6-(Aminomethyl)-2-phenyl-2H-pyrazolo[4,3-b]pyridin-3-yl)-2-fluoro-5-(pyrimidin-2-yl)-4-(trifluoromethyl)benzamide]: the IC50 came to 71 nM.
Consider `CN(C)Cc1ccc2nn(-c3ccccc3)c(NC(=O)c3ccc(C(F)(F)F)c(-c4ccn(C)n4)c3)c2c1` [Compound 68, N-{5-[(dimethylamino)methyl]-2-phenyl-2H-indazol-3-yl}-3-(1-methyl-1H-pyrazol-3-yl)-4-(trifluoromethyl)benzamide], for which inhibition was half-maximal at 21 nM (IC50).
As to `Cn1ccc(-c2cc(C(=O)Nc3c4ccc(CN)cc4nn3-c3ccccc3)c(F)cc2C(F)(F)F)n1` [Compound 71, N-[6-(aminomethyl)-2-phenyl-2H-indazol-3-yl]-2-fluoro-5-(1-methyl-1H-pyrazol-3-yl)-4-(trifluoromethyl)benzamide], the IC50 is 1.8 nM.
In turn, `Cn1ccc(-c2cc(C(=O)Nc3c4ccc(CNCCO)cc4nn3-c3ccccc3)c(F)cc2C(F)(F)F)n1` [Compound 72, 2-fluoro-N-(6-{[(2-hydroxyethyl)amino]methyl}-2-phenyl-2H-indazol-3-yl)-5-(1-methyl-1H-pyrazol-3-yl)-4-(trifluoromethyl)benzamide] yielded an IC50 of 6.5 nM.
For the compound `NC(=O)c1ccc2c(NC(=O)c3cc(-c4ncccn4)c(C(F)(F)F)cc3F)n(-c3ccccc3)nc2c1` [Compound 73, 3-(2-Fluoro-5-(pyrimidin-2-yl)-4-(trifluoromethyl)benzamido)-2-phenyl-2H-indazole-6-carboxamide], half-maximal inhibition (IC50) was put at 3.1 nM.
In turn, `Cn1ccc(-c2cc(C(=O)Nc3c4ccc(C(N)=O)cc4nn3-c3ccccc3)c(F)cc2C(F)(F)F)n1` [Compound 74, 3-(2-Fluoro-5-(1-methyl-1H-pyrazol-3-yl)-4-(trifluoromethyl)benzamido)-2-phenyl-2H-indazole-6-carboxamide] registered an IC50 of 0.57 nM.
For the compound `NC(=O)c1cnc2c(NC(=O)c3cc(-c4ncccn4)c(C(F)(F)F)cc3F)n(-c3ccccc3)nc2c1` [Compound 75, 3-(2-Fluoro-5-(pyrimidin-2-yl)-4-(trifluoromethyl)benzamido)-2-phenyl-2H-pyrazolo[4,3-b]pyridine-6-carboxamide], half-maximal inhibition (IC50) was put at 7.2 nM.
Compound `NC(=O)c1cc2nn(-c3ccccc3)c(NC(=O)c3cc(-c4ncccn4)c(C(F)(F)F)cc3F)c2cn1` [Compound 76, 3-(2-Fluoro-5-(pyrimidin-2-yl)-4-(trifluoromethyl)benzamido)-2-phenyl-2H-pyrazolo[4,3-c]pyridine-6-carboxamide] returned an IC50 of 36 nM.
To `Cc1ccccc1-n1nc2cc(C(N)=O)ccc2c1NC(=O)c1cc(-c2ccn(C)n2)c(C(F)(F)F)cc1F` [Compound 77, 3-(2-Fluoro-5-(1-methyl-1H-pyrazol-3-yl)-4-(trifluoromethyl)benzamido)-2-(o-tolyl)-2H-indazole-6-carboxamide] belongs 1.3 nM; to `NC(=O)c1ccc2c(NC(=O)c3cc(-c4cc[nH]n4)c(C(F)(F)F)cc3F)n(-c3ccccc3)nc2c1` [Compound 78, 3-({[2-fluoro-5-(1H-pyrazol-3-yl)-4-(trifluoromethyl)phenyl]carbonyl}amino)-2-phenyl-2H-indazole-6-carboxamide], 3.6 nM; to `Cn1ccc(-c2cc(C(=O)Nc3c4cc(C(N)=O)ccc4nn3-c3ccccc3)ccc2C(F)(F)F)n1` [Compound 79, 3-({[3-(1-methyl-1H-pyrazol-3-yl)-4-(trifluoromethyl)phenyl]carbonyl}amino)-2-phenyl-2H-indazole-5-carboxamide], 11 nM.
Regarding `NC(=O)c1ccc2nn(-c3ccccc3)c(NC(=O)c3cc(-c4ncccn4)c(C(F)(F)F)cc3F)c2n1` [Compound 80, 3-({[2-fluoro-5-pyrimidin-2-yl-4-(trifluoromethyl)phenyl]carbonyl}amino)-2-phenyl-2H-pyrazolo[4,3-b]pyridine-5-carboxamide], the IC50 stood at 32 nM.
With `NC(=O)c1ccc2c(NC(=O)c3cc(-c4ccccn4)c(C(F)(F)F)cc3F)n(-c3ccccc3)nc2c1` [Compound 81, 3-({[2-fluoro-5-pyridin-2-yl-4-(trifluoromethyl)phenyl]carbonyl}amino)-2-phenyl-2H-indazole-6-carboxamide], the midpoint of inhibition, the IC50, lay at 2.9 nM.
For `Cn1ccc(-c2cc(C(=O)Nc3c4ccc(C(N)=O)cc4nn3-c3ccccc3)ccc2C(F)(F)F)n1` [Compound 82, 3-({[3-(1-methyl-1H-pyrazol-3-yl)-4-(trifluoromethyl)phenyl]carbonyl}amino)-2-phenyl-2H-indazole-6-carboxamide], inhibition was half-maximal at 2.7 nM (IC50).
The compound `NC(=O)c1ccc2c(NC(=O)c3cc(-c4ccccn4)c(C(F)(F)F)cc3Cl)n(-c3ccccc3)nc2c1` [Compound 83, 3-({[2-chloro-5-pyridin-2-yl-4-(trifluoromethyl)phenyl]carbonyl}amino)-2-phenyl-2H-indazole-6-carboxamide] showed an IC50 of 6.1 nM.
Compound `NC(=O)c1cnc2c(NC(=O)c3cc(-c4ccccn4)c(C(F)(F)F)cc3F)n(-c3ccccc3)nc2c1` [Compound 84, 3-({[2-fluoro-5-pyridin-2-yl-4-(trifluoromethyl)phenyl]carbonyl}amino)-2-phenyl-2H-pyrazolo[4,3-b]pyridine-6-carboxamide] displayed an IC50 of 2.6 nM.
Turning to `NC(=O)c1cnc2c(NC(=O)c3cc(-c4ccccn4)c(C(F)(F)F)cc3Cl)n(-c3ccccc3)nc2c1` [Compound 85, 3-({[2-chloro-5-pyridin-2-yl-4-(trifluoromethyl)phenyl]carbonyl}amino)-2-phenyl-2H-pyrazolo[4,3-b]pyridine-6-carboxamide], the half-inhibitory concentration (IC50) worked out at 3.3 nM.
Compound `Cn1ccc(-c2cc(C(=O)Nc3c4ncc(C(N)=O)cc4nn3-c3ccccc3)ccc2C(F)(F)F)n1` [Compound 86, 3-({[3-(1-methyl-1H-pyrazol-3-yl)-4-(trifluoromethyl)phenyl]carbonyl}amino)-2-phenyl-2H-pyrazolo[4,3-b]pyridine-6-carboxamide] showed an IC50 of 2.8 nM.
Regarding `Cn1ccc(-c2cc(C(=O)Nc3c4ncc(C(N)=O)cc4nn3-c3ccccc3)c(F)cc2C(F)(F)F)n1` [Compound 87, 3-({[2-fluoro-5-(1-methyl-1H-pyrazol-3-yl)-4-(trifluoromethyl)phenyl]carbonyl}amino)-2-phenyl-2H-pyrazolo[4,3-b]pyridine-6-carboxamide], half-maximal inhibition (IC50) required 0.63 nM.
Next, `NC(=O)c1cnc2c(NC(=O)c3ccc(C(F)(F)F)c(-c4ncccn4)c3)n(-c3ccccc3)nc2c1` [Compound 88, 2-phenyl-3-({[3-pyrimidin-2-yl-4-(trifluoromethyl)phenyl]carbonyl}amino)-2H-pyrazolo[4,3-b]pyridine-6-carboxamide]: 13 nM.
For the compound `NC(=O)c1cccc2c(NC(=O)c3cc(-c4ncccn4)c(C(F)(F)F)cc3F)n(-c3ccccc3)nc12` [Compound 89, 3-({[2-fluoro-5-pyrimidin-2-yl-4-(trifluoromethyl)phenyl]carbonyl}amino)-2-phenyl-2H-indazole-7-carboxamide], the IC50 stood at 11 nM.
Regarding `O=C(NCCO)c1ccc2c(NC(=O)c3cc(-c4ncccn4)c(C(F)(F)F)cc3Cl)n(-c3ccccc3)nc2c1` [Compound 90, 3-({[2-chloro-5-pyrimidin-2-yl-4-(trifluoromethyl)phenyl]carbonyl}amino)-N-(2-hydroxyethyl)-2-phenyl-2H-indazole-6-carboxamide], 14 nM corresponded to half-maximal inhibition (IC50).
`Cc1ccccc1-n1nc2cc(C(N)=O)cnc2c1NC(=O)c1cc(-c2ncccn2)c(C(F)(F)F)cc1F` [Compound 91, 3-({[2-fluoro-5-pyrimidin-2-yl-4-(trifluoromethyl)phenyl]carbonyl}amino)-2-(2-methylphenyl)-2H-pyrazolo[4,3-b]pyridine-6-carboxamide] returned a half-maximal inhibitory concentration (IC50) of 52 nM.
As for `O=C(NCCO)c1ccc2c(NC(=O)c3cc(-c4ncccn4)c(C(F)(F)F)cc3F)n(-c3ccccc3)nc2c1` [Compound 92, 3-({[2-fluoro-5-pyrimidin-2-yl-4-(trifluoromethyl)phenyl]carbonyl}amino)-N-(2-hydroxyethyl)-2-phenyl-2H-indazole-6-carboxamide], the IC50 was determined as 11 nM.
On to `Cc1ccccc1-n1nc2cc(C(N)=O)ccc2c1NC(=O)c1cc(-c2ncccn2)c(C(F)(F)F)cc1F` [Compound 93, 3-({[2-fluoro-5-pyrimidin-2-yl-4-(trifluoromethyl)phenyl]carbonyl}amino)-2-(2-methylphenyl)-2H-indazole-6-carboxamide], for which inhibition was half-maximal at 32 nM (IC50).

A word on the IC50: it is the concentration needed to halve the response being measured. A high value points to lower potency.
